Literature values as cited in patent publication US20070010487A1 (priority 2005, published 2007).

Molecular target: P-gp efflux (Homo sapiens, UniProt P08183)
Sequence (P08183 whole entry): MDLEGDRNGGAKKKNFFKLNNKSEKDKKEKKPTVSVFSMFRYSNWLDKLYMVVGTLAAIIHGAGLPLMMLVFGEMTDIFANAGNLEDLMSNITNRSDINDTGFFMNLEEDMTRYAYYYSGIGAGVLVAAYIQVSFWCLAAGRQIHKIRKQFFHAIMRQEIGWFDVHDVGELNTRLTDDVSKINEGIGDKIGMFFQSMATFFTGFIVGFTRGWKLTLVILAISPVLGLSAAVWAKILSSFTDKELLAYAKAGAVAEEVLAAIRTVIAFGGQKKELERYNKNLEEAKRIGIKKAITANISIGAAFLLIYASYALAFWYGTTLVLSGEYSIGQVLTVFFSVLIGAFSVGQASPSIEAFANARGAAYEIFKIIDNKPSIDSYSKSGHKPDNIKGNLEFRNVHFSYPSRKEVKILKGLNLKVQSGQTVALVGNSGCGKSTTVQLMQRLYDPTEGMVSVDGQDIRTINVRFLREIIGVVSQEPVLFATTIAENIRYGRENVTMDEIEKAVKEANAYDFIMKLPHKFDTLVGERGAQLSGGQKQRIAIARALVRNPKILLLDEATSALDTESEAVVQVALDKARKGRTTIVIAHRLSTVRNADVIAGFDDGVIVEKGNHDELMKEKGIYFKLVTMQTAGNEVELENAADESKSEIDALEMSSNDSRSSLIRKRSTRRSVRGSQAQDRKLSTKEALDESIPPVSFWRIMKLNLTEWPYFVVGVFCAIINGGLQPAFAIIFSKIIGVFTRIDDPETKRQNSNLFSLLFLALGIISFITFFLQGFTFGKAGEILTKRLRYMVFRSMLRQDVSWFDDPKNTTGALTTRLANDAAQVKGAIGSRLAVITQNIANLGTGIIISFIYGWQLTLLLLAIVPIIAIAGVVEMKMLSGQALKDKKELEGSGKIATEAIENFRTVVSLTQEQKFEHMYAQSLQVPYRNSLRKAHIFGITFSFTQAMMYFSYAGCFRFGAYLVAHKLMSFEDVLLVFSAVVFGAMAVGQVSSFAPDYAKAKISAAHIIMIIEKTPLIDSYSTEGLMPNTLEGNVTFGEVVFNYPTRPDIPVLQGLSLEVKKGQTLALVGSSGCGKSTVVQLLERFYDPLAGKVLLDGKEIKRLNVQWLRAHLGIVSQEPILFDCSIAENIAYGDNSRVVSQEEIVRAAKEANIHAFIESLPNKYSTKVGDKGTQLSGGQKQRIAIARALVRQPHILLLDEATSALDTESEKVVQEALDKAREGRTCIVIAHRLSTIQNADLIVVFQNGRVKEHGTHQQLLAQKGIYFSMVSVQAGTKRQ

In the case of O[C@@H](COc1cccc2ncccc12)CN1CCN([C@@H]2c3ccccc3[C@@H]3[C@H](c4ccccc42)C3(F)F)CC1 [Zosuquidar], the “substrate for P-gp efflux” value is given as “does not appear to be a substrate for P-gp efflux”.
